Results published in patent publication US9630922B2, “3-spiro-7-hydroxamic acid tetralins as HDAC inhibitors” (Forma Therapeutics, Inc., priority 2015, dated 2017).

These compounds were tested against T1, HDAC6 (Homo sapiens, UniProt Q9UBN7) (assay: In vitro Histone Deacetylase Assay (enzymatic HDAC6 electrophoretic mobility shift assay)). Conditions: full length human recombinant HDAC6, 1 nM enzyme, 2 μM peptide substrate RHKK(Ac)-NH2, 25° C.; read-out: HDAC6 activity range.
T1 construct: Full length human recombinant HDAC6 protein was expressed in baculoviral system; made in house; host or cells: baculoviral system
T1 sequence (Q9UBN7 1-1215): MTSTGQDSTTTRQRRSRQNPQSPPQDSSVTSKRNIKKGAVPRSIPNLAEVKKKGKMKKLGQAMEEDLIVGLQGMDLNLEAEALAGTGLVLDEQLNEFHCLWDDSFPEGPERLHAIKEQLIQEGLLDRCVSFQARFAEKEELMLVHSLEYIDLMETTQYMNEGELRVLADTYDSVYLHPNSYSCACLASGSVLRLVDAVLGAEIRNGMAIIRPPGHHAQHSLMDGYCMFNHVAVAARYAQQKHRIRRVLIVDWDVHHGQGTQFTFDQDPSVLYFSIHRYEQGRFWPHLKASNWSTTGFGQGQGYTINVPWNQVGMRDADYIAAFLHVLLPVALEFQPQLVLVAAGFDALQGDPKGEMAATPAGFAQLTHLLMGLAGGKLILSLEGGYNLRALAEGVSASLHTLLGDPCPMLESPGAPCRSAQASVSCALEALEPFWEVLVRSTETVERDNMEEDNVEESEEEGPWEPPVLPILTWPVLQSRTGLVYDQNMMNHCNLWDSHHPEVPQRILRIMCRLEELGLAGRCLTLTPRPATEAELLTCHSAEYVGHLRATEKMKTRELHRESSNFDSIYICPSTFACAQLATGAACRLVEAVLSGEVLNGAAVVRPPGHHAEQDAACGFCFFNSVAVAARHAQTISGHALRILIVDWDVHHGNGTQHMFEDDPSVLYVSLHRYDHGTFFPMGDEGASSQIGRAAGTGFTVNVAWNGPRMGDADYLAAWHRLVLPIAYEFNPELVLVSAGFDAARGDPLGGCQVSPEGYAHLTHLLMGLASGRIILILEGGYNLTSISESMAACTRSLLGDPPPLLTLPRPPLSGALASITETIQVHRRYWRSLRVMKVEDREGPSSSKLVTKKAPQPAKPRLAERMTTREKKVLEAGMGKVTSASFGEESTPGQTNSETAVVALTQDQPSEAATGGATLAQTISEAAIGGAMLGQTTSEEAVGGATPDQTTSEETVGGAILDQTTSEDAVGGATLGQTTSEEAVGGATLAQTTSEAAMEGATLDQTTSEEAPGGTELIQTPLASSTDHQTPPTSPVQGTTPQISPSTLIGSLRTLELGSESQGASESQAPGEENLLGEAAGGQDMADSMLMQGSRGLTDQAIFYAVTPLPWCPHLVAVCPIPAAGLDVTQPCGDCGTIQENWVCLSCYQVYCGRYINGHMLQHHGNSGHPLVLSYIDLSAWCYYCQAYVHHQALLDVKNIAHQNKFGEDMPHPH
Assay type: biochemical
Method in brief: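 Deacetylation was read by microfluidic mobility shift as product/(substrate+product) peak ratio and normalised to 0% and 100% inhibition controls. Reactions used 1 nM baculovirus-expressed full-length human HDAC6 and 2 μM labelled RHKK(Ac)-NH2 in pH 7.5 HEPES buffer with 1% DMSO at 25 °C. IC50 was from 4-parameter fits of 12 concentrations.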

Row | IC50 [nM] | SMILES
1 | ≤ 100 | COc1cccc(N2CC[C@@]3(CCc4cc(C(=O)NO)ccc4C3)C2=O)c1 [Compound I-158, (S)-N-hydroxy-1′-(3-methoxyphenyl)-2′-oxo-3,4-dihydro-1H-spiro[naphthalene-2,3′-pyrrolidine]-6-carboxamide]
2 | ≤ 100 | CC(C)CN1CC[C@]2(CCc3cc(C(=O)NO)ccc3C2)C1=O [Compound I-159, (R)-N-hydroxy-1′-isobutyl-2′-oxo-3,4-dihydro-1H-spiro[naphthalene-2,3′-pyrrolidine]-6-carboxamide]
3 | 100 to 500 | CC(C)CN1CC[C@@]2(CCc3cc(C(=O)NO)ccc3C2)C1=O [Compound I-160, (S)-N-hydroxy-1′-isobutyl-2′-oxo-3,4-dihydro-1H-spiro[naphthalene-2,3′-pyrrolidine]-6-carboxamide]
4 | ≤ 100 | CCN1CC[C@]2(CCc3cc(C(=O)NO)ccc3C2)C1=O [Compound I-161, (R)-1′-ethyl-N-hydroxy-2′-oxo-3,4-dihydro-1H-spiro[naphthalene-2,3′-pyrrolidine]-6-carboxamide]
5 | ≤ 100 | CCN1CC[C@@]2(CCc3cc(C(=O)NO)ccc3C2)C1=O [Compound I-162, (S)-1′-ethyl-N-hydroxy-2′-oxo-3,4-dihydro-H-spiro[naphthalene-2,3′-pyrrolidine]-6-carboxamide]
6 | ≤ 100 | O=C(NO)c1ccc2c(c1)CC[C@]1(CCN(C3CCCC3)C1=O)C2 [Compound I-163, (R)-1′-cyclopentyl-N-hydroxy-2′-oxo-3,4-dihydro-1H-spiro[naphthalene-2,3′-pyrrolidine]-6-carboxamide]
7 | 100 to 500 | O=C(NO)c1ccc2c(c1)CC[C@@]1(CCN(C3CCCC3)C1=O)C2 [Compound I-164, (S)-1′-cyclopentyl-N-hydroxy-2′-oxo-3,4-dihydro-1H-spiro[naphthalene-2,3′-pyrrolidine]-6-carboxamide]
8 | ≤ 100 | O=C(NO)c1ccc2c(c1)CC[C@]1(CCN(CC(F)(F)F)C1=O)C2 [Compound I-165, (R)-N-hydroxy-2′-oxo-1′-(2,2,2-trifluoroethyl)-3,4-dihydro-1H-spiro[naphthalene-2,3′-pyrrolidine]-6-carboxamide]
9 | 100 to 500 | O=C(NO)c1ccc2c(c1)CC[C@@]1(CCN(CC(F)(F)F)C1=O)C2 [Compound I-166, (S)-N-hydroxy-2′-oxo-1′-(2,2,2-trifluoroethyl)-3,4-dihydro-1H-spiro[naphthalene-2,3′-pyrrolidine]-6-carboxamide]
10 | ≤ 100 | O=C(NO)c1ccc2c(c1)CC[C@]1(CCN(c3cc(F)ccc3F)C1=O)C2 [Compound I-167, (R)-1′-(2,5-difluorophenyl)-N-hydroxy-2′-oxo-3,4-dihydro-1H-spiro[naphthalene-2,3'-pyrrolidine]-6-carboxamide]
11 | ≤ 100 | Cn1cc(N2CC[C@]3(CCc4cc(C(=O)NO)ccc4C3)C2=O)cn1 [Compound I-168, (R)-N-hydroxy-1′-(1-methyl-1H-pyrazol-4-yl)-2′-oxo-3,4-dihydro-1H-spiro[naphthalene-2,3′-pyrrolidine]-6-carboxamide]
12 | ≤ 100 | O=C(NO)c1ccc2c(c1)CC[C@@]1(CCN(c3cc(F)ccc3F)C1=O)C2 [Compound I-169, (S)-1′-(2,5-difluorophenyl)-N-hydroxy-2′-oxo-3,4-dihydro-1H-spiro[naphthalene-2,3′-pyrrolidine]-6-carboxamide]
13 | ≤ 100 | Cn1cc(N2CC[C@@]3(CCc4cc(C(=O)NO)ccc4C3)C2=O)cn1 [Compound I-170, (S)-N-hydroxy-1′-(1-methyl-1H-pyrazol-4-yl)-2′-oxo-3,4-dihydro-1H-spiro[naphthalene-2,3-pyrrolidine]-6-carboxamide]
14 | ≤ 100 | N#Cc1ccc(N2CC[C@@]3(CCc4cc(C(=O)NO)ccc4C3)C2=O)cc1 [Compound I-173, (S)-1′-(4-cyanophenyl)-N-hydroxy-2′-oxo-3,4-dihydro-1H-spiro[naphthalene-2,3′-pyrrolidine]-6-carboxamide]
15 | ≤ 100 | N#Cc1ccccc1N1CC[C@@]2(CCc3cc(C(=O)NO)ccc3C2)C1=O [Compound I-174, (S)-1′-(2-cyanophenyl)-N-hydroxy-2′-oxo-3,4-dihydro-1H-spiro[naphthalene-2,3′-pyrrolidine]-6-carboxamide]
16 | ≤ 100 | N#Cc1ccccc1N1CC[C@]2(CCc3cc(C(=O)NO)ccc3C2)C1=O [Compound I-175, (R)-1′-(2-cyanophenyl)-N-hydroxy-2′-oxo-3,4-dihydro-1H-spiro[naphthalene-2,3′-pyrrolidine]-6-carboxamide]
17 | ≤ 100 | O=C(NO)c1ccc2c(c1)CCC1(CCCN(Cc3ccccc3)C1=O)C2 (stereo not drawn) [Compound I-176, 1′-benzyl-N-hydroxy-2′-oxo-3,4-dihydro-1H-spiro[naphthalene-2,3′-piperidine]-6-carboxamide]
18 | ≤ 100 | O=C(NO)c1ccc2c(c1)CCC1(CCCNC1=O)C2 (stereo not drawn) [Compound I-177, N-hydroxy-2′-oxo-3,4-dihydro-1H-spiro[naphthalene-2,3′-piperidine]-6-carboxamide]
19 | ≤ 100 | CN1CCCC2(CCc3cc(C(=O)NO)ccc3C2)C1=O (stereo not drawn) [Compound I-178, N-hydroxy-1′-methyl-2′-oxo-3,4-dihydro-1H-spiro[naphthalene-2,3′-piperidine]-6-carboxamide]
20 | ≤ 100 | O=C(NO)c1ccc2c(c1)CC[C@]1(CCCN(C3CC3)C1=O)C2 [Compound I-183, (S)-1′-cyclopropyl-N-hydroxy-2′-oxo-3,4-dihydro-1H-spiro[naphthalene-2,3′-piperidine]-6-carboxamide]
21 | ≤ 100 | O=C(NO)c1ccc2c(c1)CC[C@@]1(CCCN(C3CCCC3)C1=O)C2 [Compound I-199, (R)-1′-cyclopentyl-N-hydroxy-2′-oxo-3,4-dihydro-1H-spiro[naphthalene-2,3′-piperidine]-6-carboxamide]
22 | ≤ 100 | O=C(NO)c1ccc2c(c1)CC[C@]1(CCCN(C3CCCC3)C1=O)C2 [Compound I-200, (S)-1′-cyclopentyl-N-hydroxy-2′-oxo-3,4-dihydro-1H-spiro[naphthalene-2,3′-piperidine]-6-carboxamide]
23 | ≤ 100 | O=C(NO)c1ccc2c(c1)CC[C@]1(CC(=O)N(c3ccncc3)C1)C2 [Compound I-228, (R)-N-hydroxy-5′-oxo-1′-(pyridin-4-yl)-3,4-dihydro-1H-spiro[naphthalene-2,3′-pyrrolidine]-6-carboxamide]
24 | ≤ 100 | O=C(NO)c1ccc2c(c1)CC[C@]1(CC(=O)N(c3ccccn3)C1)C2 [Compound I-229, (R)-N-hydroxy-5′-oxo-1′-(pyridin-2-yl)-3,4-dihydro-1H-spiro[naphthalene-2,3′-pyrrolidine]-6-carboxamide]
25 | > 500 | O=C(NO)c1ccc2c(c1)CCC1(CCN(Cc3ccncc3)C1=O)O2 (stereo not drawn) [Compound I-230, N-hydroxy-2′-oxo-1′-(pyridin-4-ylmethyl)spiro[chromane-2,3′-pyrrolidine]-6-carboxamide]
26 | 100 to 500 | O=C(NO)c1ccc2c(c1)CCC1(CCN(c3ccccc3)C1=O)O2 (stereo not drawn) [Compound I-231, N-hydroxy-2′-oxo-1′-phenylspiro[chromane-2,3′-pyrrolidine]-6-carboxamide]
27 | 100 to 500 | O=C(NO)c1ccc2c(c1)CCC1(CCN(Cc3ccccc3)C1=O)O2 (stereo not drawn) [Compound I-232, 1′-benzyl-N-hydroxy-2′-oxospiro[chromane-2,3′-pyrrolidine]-6-carboxamide]
28 | 100 to 500 | O=C(NO)c1ccc2c(c1)CCC1(CCN(c3cccnc3)C1=O)O2 (stereo not drawn) [Compound I-233, N-hydroxy-2′-oxo-1′-(pyridin-3-yl)spiro[chromane-2,3′-pyrrolidine]-6-carboxamide]
29 | > 500 | O=C(NO)c1ccc2c(c1)CCC1(CCN(CC3CCOCC3)C1=O)O2 (stereo not drawn) [Compound I-234, N-hydroxy-2′-oxo-1′-((tetrahydro-2H-pyran-4-yl)methyl)spiro[chromane-2,3′-pyrrolidine]-6-carboxamide]
30 | > 500 | CC(C)N1CCC2(CCc3cc(C(=O)NO)ccc3O2)C1=O (stereo not drawn) [Compound I-235, N-hydroxy-1′-isopropyl-2′-oxospiro[chromane-2,3′-pyrrolidine]-6-carboxamide]
